Laboratory results reported in patent publication US20100152261A1 (MITSUBISHI TANABE PHARMA CORPORATION, priority 2005, published 2010).
Read-outs that look alike come from different tables or passages of the source.

Legend:
muscarinic M2 receptor = target: T1, muscarinic M2 receptor (Cavia porcellus, UniProt H0VRN8); experiment: Muscarinic M2 antagonistic action in isolated guinea pig left atrium (carbachol-induced relaxation, Schild method); assay type: cell-based; conditions: compound applied 30 minutes before carbachol
T1 construct: left atria were excised to prepare tissue specimens; from tissue; host or cells: isolated guinea pig left atrium (male Hartley)
T1 sequence (H0VRN8 1-466): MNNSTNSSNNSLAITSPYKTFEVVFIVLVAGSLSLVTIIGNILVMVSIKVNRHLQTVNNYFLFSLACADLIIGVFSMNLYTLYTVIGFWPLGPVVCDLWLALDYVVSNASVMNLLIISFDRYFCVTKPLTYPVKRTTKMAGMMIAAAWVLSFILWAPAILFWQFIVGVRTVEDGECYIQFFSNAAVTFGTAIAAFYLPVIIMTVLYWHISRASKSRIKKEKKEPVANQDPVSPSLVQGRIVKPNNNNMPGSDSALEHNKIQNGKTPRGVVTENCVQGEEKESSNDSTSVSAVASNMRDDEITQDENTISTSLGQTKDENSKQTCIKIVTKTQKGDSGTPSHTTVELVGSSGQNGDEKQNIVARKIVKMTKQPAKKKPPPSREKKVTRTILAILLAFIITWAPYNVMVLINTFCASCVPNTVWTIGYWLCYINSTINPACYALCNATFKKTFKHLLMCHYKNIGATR
Experimental: Muscarinic M2 Antagonistic Action in Isolated Guinea Pig Left Atrium […] Each tissue specimen was kept warm at 37° C., suspended with a resting tension of 0.5 g in a 5-mL Magnus bath filled with a Krebs carbonate buffer bubbled with 95% O2/5% CO2. Then, contraction evoked by field electrical stimulation (4 Hz, 2 msec, 1.5×threshold potential) was measured. After a stabilization period of 60 minutes, carbachol-induced relaxation was isometrically measured and recorded by the cumulative method from 10^−8 M with an interval of 90 seconds for one concentration in an equal ratio of 3. After the measurement, the tissue specimen was immediately washed, and left for 45 minutes as a stabilization period before the next observation. The tissue specimen of which EC50 for the carbachol-induced relaxation was stabilized was considered as a control. Each test compound was applied 30 minutes before the addition of carbachol. The affinity (pA2) of the test compound was obtained in the same manner as in the case of the trachea.

[1] = test system: Bronchoconstriction in Guinea Pigs (induced with acetylcholine); experiment: Effect on bronchoconstriction in guinea pigs (via inhalation administration), Konzett method; assay type: in vivo; conditions: Cavia porcellus, iv; guinea pig, intratracheal administration 10 μL g/head, 24 hours after administration, acetylcholine 4 μg/kg i.v., versus control group; read-out: Percent of inhibition of bronchoconstriction (%)
Experimental: Effect on Bronchoconstriction in Guinea Pigs (Via Inhalation Administration)
The test was performed according to the method of Konzett et al. (Arch. Exp. Path Pharmak., 1940, 195, 71-74). Male Hartley guinea pigs (350 to 600 g) were anesthetized with urethane (1.8 g/kg, i.p.), and then a cannula for drug administration was inserted into each left jugular vein. After the immobilization with decamethonium (2 mg/kg, i.v.), a tracheal cannula was inserted, and controlled respiration was attained by a respirator (Harvard). Bronchoconstriction was measured as changes of airway pressure with a pressure transducer (Nihon Kohden Corp.). Each test compound was administered (10 μL g/head) from dissected trachea by using a device for intratracheal administration of liquid for guinea pigs (Penn Century), and after suture, the animals were returned to usual breeding. After 24 hours, acetylcholine (4 μg/kg, i.v.) was administered to induce bronchoconstriction, and inhibitory activity on bronchoconstriction was calculated as percent inhibition comparing to the change of airway pressure in control group was obtained.

muscarinic M3 receptor = target: T2, muscarinic M3 receptor (Cavia porcellus, UniProt H0W1Z3); experiment: Muscarinic M3 antagonistic action in isolated guinea pig trachea (carbachol-induced contraction, Schild method); assay type: cell-based; conditions: compound applied 15 minutes before carbachol
T2 construct: trachea was excised, and cut at every two tracheal cartilages to prepare tissue specimens; from tissue; host or cells: isolated guinea pig trachea (male Hartley)
T2 sequence (H0W1Z3 1-590): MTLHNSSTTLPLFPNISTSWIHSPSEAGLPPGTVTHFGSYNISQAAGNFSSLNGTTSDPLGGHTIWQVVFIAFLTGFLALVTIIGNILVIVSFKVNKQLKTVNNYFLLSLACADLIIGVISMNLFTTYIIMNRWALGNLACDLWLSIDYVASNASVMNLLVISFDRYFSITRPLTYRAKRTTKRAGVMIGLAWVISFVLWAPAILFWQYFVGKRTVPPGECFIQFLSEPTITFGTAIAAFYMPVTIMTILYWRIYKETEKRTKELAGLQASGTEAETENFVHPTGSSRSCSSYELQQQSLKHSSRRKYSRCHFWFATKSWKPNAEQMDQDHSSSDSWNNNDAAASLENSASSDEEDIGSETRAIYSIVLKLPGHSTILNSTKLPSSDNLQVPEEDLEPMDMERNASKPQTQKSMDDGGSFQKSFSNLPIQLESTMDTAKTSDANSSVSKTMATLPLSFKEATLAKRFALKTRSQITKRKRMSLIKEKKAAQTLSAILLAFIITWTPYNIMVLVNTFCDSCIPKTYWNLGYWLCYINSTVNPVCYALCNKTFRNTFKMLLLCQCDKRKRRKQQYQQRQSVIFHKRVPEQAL
Experimental: Muscarinic M3 Antagonistic Action in Isolated Guinea Pig Trachea
Male Hartley guinea pigs (350 to 600 g) were sacrificed by bleeding, and trachea was excised, and cut at every two tracheal cartilages to prepare tissue specimens. Each tissue specimen was kept warm at 37° C., suspended with a resting tension of 1 g in a 5-mL Magnus bath filled with a Krebs carbonate buffer containing indomethacin (1 μM) bubbled with 95% O2/5% CO2, and left for 60 minutes as a stabilization period. […] After the measurement, the tissue specimen was immediately washed, and left for 60 minutes as a stabilization period before the next contraction reaction, and the tissue specimen of which EC50 for the carbachol-induced contraction reaction was stabilized was considered as a control. Each test compound was applied 15 minutes before the addition of carbachol. The affinity (pA2) of the test compound was obtained by the Schild method (Arunlakshana, O. and Schild, H. O., Brit. J. Pharmacol., 1959, 14, 48-58).

[2] = isolated guinea pig left atrium, read-out: pA2 Left atrium M2 (converted)
[3] = isolated guinea pig trachea, read-out: pA2 Trachea M3 (converted)
[4] = pA2 Left atrium M2, isolated guinea pig left atrium
[5] = pA2 Trachea M3, isolated guinea pig trachea

Structure (SMILES)	Kb (muscarinic M2 receptor; [2]) [nM]	inhibition in vivo at 0.01 mg [1] [%]	Kb (muscarinic M3 receptor; [3]) [nM]	Kb (muscarinic M2 receptor; [4]) [nM]	Kb (muscarinic M3 receptor; [5]) [nM]
CC1=[N+](C)CCN1[C@@H]1CC[C@H](C(C(N)=O)(c2ccccc2)c2ccccc2)C1 [Example 60, 3-((1R,3S)-3-(Carbamoyl(diphenyl)methyl)cyclopentyl)-1,2-dimethyl-4,5-dihydro-3H-imidazol-1-ium para-toluenesulfonate]	15.8	90	0.631	–	–
Cc1cccc(C[n+]2ccn([C@H]3CC[C@@H](C(C(N)=O)(c4ccccc4)c4ccccc4)C3)c2C)c1 (relative stereo) [Example 8, 3-(cis-3-(Carbamoyl(diphenyl)methyl)cyclopentyl)-2-methyl-1-(3-methyl-benzyl)-3H-imidazol-1-ium bromide]	–	90	–	10	0.316
C[n+]1ccn([C@H]2CC[C@H](C(C(N)=O)(c3ccccc3)c3ccccc3)C2)c1 (relative stereo) [Example 59, 3-(trans-3-(Carbamoyl(diphenyl)methyl)cyclopentyl)-1-methyl-3H-imidazol-1-ium iodide]	–	90	–	20	0.794
CC(=O)C[n+]1ccn([C@@H]2CC[C@H](C(C(N)=O)(c3ccccc3)c3ccccc3)C2)c1C [Example 90, 3-((1R,3S)-3-(Carbamoyl(diphenyl)methyl)cyclopentyl)-2-methyl-1-(2-oxopropyl)-3H-imidazol-1-ium bromide]	–	100	–	316	0.794
Cc1nccn1[C@@H]1CC[C@H](C(C(N)=O)(c2ccccc2)c2ccccc2)C1 (relative stereo) [Reference Example 5, 2-(cis-3-(2-Methylimidazol-1-yl)cyclopentyl)-2,2-diphenylacetamide, reference compound]	50.1	0	0.794	–	–
